Experimental data: PubChem BioAssay AID651764 (The Scripps Research Institute Molecular Screening Center, 2012)
The source made the active and inactive calls. No rule for the calls is given here.

Biological target: Delta-type opioid receptor (Homo sapiens) (UniProt P41143)
Test: OPRD1 luminescent activation counter-screen – cell-based, luminescence, dose response, set 2, counter-screen for OPRM1-OPRD1 heterodimer activator project, late-stage follow-up (AID 651764)
Conditions: OPRD1 cell-based luminescence activation counterscreen

Chain of Delta-type opioid receptor (Homo sapiens) (P41143 whole entry, looked up): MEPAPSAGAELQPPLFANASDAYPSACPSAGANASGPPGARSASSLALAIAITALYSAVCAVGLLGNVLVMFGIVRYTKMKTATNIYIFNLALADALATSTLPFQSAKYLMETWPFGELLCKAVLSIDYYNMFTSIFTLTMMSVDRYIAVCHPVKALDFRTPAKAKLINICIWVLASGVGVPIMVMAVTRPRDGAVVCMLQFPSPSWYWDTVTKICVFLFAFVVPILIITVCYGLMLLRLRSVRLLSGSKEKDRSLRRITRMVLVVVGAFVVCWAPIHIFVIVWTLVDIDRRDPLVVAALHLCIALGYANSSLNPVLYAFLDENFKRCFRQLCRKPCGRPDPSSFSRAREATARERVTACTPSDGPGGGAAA

SMILES | EC50
CCOC(=O)C1(CCc2ccccc2)CCN(Cc2ccc(OC)cc2)CC1 | > 50 µM (inactive)
CCOC(=O)C1(CCOc2ccccc2)CCCN(Cc2ccc(NC(C)=O)cc2)C1 (stereo not drawn) | > 50 µM (inactive)
O=C(O)C1CCCCC1C(=O)Nc1ccc(CN2CCCCC2)cc1 (stereo not drawn) | > 50 µM (inactive)
CCOC(=O)C1CCN(Cc2ccc(N(C)C)cc2)CC1 | > 50 µM (inactive)
CCOC(=O)C1(CCc2ccccc2)CCN(C(=O)Nc2ccc(C)cc2C)CC1 | > 50 µM (inactive)
CCOC(=O)C1(CCOC)CCN(Cc2ccc(N(C)c3ccccc3)cc2)CC1 | > 50 µM (inactive)
CCOC(=O)C1(CCc2ccccc2)CCN(Cc2ccncc2)CC1 | > 50 µM (inactive)
CCOC(=O)C1(Cc2ccccc2C)CCCN(Cc2ccc(NC(C)=O)cc2)C1 (stereo not drawn) | > 50 µM (inactive)
CCOC(=O)C1(Cc2ccc(OC)cc2)CCN(C(=O)c2ccc(N(C)C)cc2)CC1 | > 50 µM (inactive)
CCOC(=O)C1CCN(CCC(=O)Nc2ccc(C)cc2)CC1 | > 50 µM (inactive)
CCOC(=O)C1(CC2CC2)CCN(C(=O)c2ccc(N3CCCCC3)cc2)CC1 | > 50 µM (inactive)
C=Cc1ccc(C(=O)N2CCC(CCc3ccccc3)(C(=O)OCC)CC2)cc1 | > 50 µM (inactive)
CCOC(=O)C1CCN(Cc2ccc(NC(C)=O)cc2)CC1 | > 50 µM (inactive)
CCOC(=O)C1(CCc2ccccc2)CCN(Cc2ccc(C(=O)OC)cc2)CC1 | > 50 µM (inactive)
CCOC(=O)C1(CCOC)CCN(Cc2ccc(NC(C)=O)cc2)CC1 | > 50 µM (inactive)
CCOC(=O)C1(Cc2ccccc2)CCCN(Cc2ccc(NC(C)=O)cc2)C1 (stereo not drawn) | > 50 µM (inactive)
CCOC(=O)C1(CCc2ccccc2)CCN(Cc2c(O)cccc2OC)CC1 | > 50 µM (inactive)
CCOC(=O)C1(Cc2cccc(OC)c2)CCCN(Cc2ccc(NC(C)=O)cc2)C1 (stereo not drawn) | > 50 µM (inactive)
CCOC(=O)C1CCCCN1Cc1ccc(NC(C)=O)cc1 (stereo not drawn) | > 50 µM (inactive)
CCOC(=O)C1(CCc2ccccc2)CCCN(Cc2ccc(N3CCNC3=O)cc2)C1 (stereo not drawn) | > 50 µM (inactive)
CCOC(=O)C1(Cc2ccccc2Cl)CCN(Cc2ccc(NC(C)=O)cc2)CC1 | 0.321 µM
CCOC(=O)C1(CC2CC2)CCN(Cc2ccc(NC(C)=O)cc2)CC1 | > 50 µM (inactive)
C=Cc1ccc(C(=O)N2CCC(CCCc3ccccc3)(C(=O)OCC)CC2)cc1 | > 50 µM (inactive)
CCOC(=O)C1CCN(C(=O)c2ccc(N(C)C)cc2)CC1 | > 50 µM (inactive)
CCOC(=O)C1(CCc2ccccc2)CCN(Cc2ccc(C#CC(C)(C)O)cc2)CC1 | > 50 µM (inactive)
CCOC(=O)C1(CCOC)CCCN(Cc2ccc(NC(C)=O)cc2)C1 (stereo not drawn) | > 50 µM (inactive)
CCOC(=O)C1(CCc2ccccc2)CCN(Cc2ccc(O)cc2)CC1 | > 50 µM (inactive)
CC(=O)Nc1ccc(CN2CCCC(CO)(CCc3ccccc3)C2)cc1 (stereo not drawn) | > 50 µM (inactive)
